Values joined by “and” are separate entries in the source; they are usually repeats but may differ in a detail not shown here. Equal entries are not always repeated. Where two headings read alike, the source gives them in different places. Where a SMILES comes first, the peptide text is derived from it. [ ]: non-standard residue; d: D form. The star is where a group is joined. NHCH2CH2OH = OCCN*; For = O=C*
How the values were obtained:
[1] = Experimental: Second, we examined the cytotoxicity toward mammalian cancer cells and hemolytic activity of 1. […] Hemolytic activity was evaluated by monitoring hemoglobin leakage from rabbit red blood cells as a consequence of membrane damage. The concentration of 1 required to cause 10% hemoglobin leakage (HC10) was 160 nM. Thus, the P388 cytotoxicity of 1 was 28-fold more sensitive than its hemolytic activity.
Mammalian cytotoxicity assay of purified peptides.
B22 was diluted with the growth medium with 2% DMSO to various concentrations as 5-fold serial dilution.
The collected cells were resuspended into
the growth medium at 2 × 10^4 cells/mL. Aliquots of the former medium (2% DMSO, 100 µL) containing
peptides and the latter medium containing P388 cells (100 µL) were mixed in a 96-well cell culture plate
(TR5003, TrueLine). The final concentration of P388 cells and DMSO were 1 × 10^4 cells/mL and 1%,
respectively. […]
were determined by WST -1 assay. A solution of 1-methoxy PMS and WST-1 in the growth medium
(1-methoxy PMS 0.70 mg/mL in Milli-Q/WST-1 3.6 mg/mL in pH 7.4 HEPES buffer = 1/9) was added to
each well of the plate (20.0 µL/well). The cells were incubated for 4 h under atmosphere of 5% CO 2 at
37 °C. The absorbance of each well at 415 nm was measured using a Benchmark microplate reader
(Bio-Rad) or Thermo Scientifi c Multiskan GO (Thermo Fisher Scientific). The cytotoxicities of the purified
peptides were evaluated as IC 50 (nM) by means of three replicates. Sigmoidal curve fittings were performed

[2] = Membrane disruption assay of purified peptides (carboxyfluorescein leakage); type: biochemical; set-up: key: % lysis; Triton X-100 = 100%, DMSO = 0%; details: three replicate lines
Experimental: Membrane disruption assay of purified peptides. 5(6)-Carboxyfluorescein (CF)-encapsulated large […]
through Nuclepore polycarbonate filters mounted in the mini-extruder apparatus. A solution of egg yolk phosphatidylcholine (EYPC, 22.0 mg, 28.9 µmol) in CHCl3 (225 µL) and egg yolk phosphatidylglycerol (1.2 0 […]
mM HEPES, 100 mM NaCl, 20 mM CF) by sonication. After five -times freeze-thaw cycles, the lipid […]
concentration of the resultant CF -encapsulated LUV suspension was deduced from the phosphatidylcholine concentration determined by using Phospholipid C -Test Wako. The lipid concentration of the LUV […]
as 5-fold serial dilution. The solution of peptide (2.0 µL) and the CF-encapsulated LUV suspension (200 […]
The resultant suspension was incubated at room temperature for 30 min. The fluorescence (Ex. 490 nm/Em. 517 nm) of each well was measured on Gemini EM microplate reader. Triton X-100/H2O (5/95, 3.0 µL), DMSO (2.0 µL), and the LUV suspension were mixed in each plate to determine 100% lysis. […]
was used to determine 0% lysis. The membrane disruption activities of tested peptides ( I) were normalized against 100% lysis by Triton X-100 (Imax) and 0% lysis by DMSO ( I0) according to Supplementary Equation 2 , where Ix is the fluorescence intensity.
The membrane disruption activities of the purified peptides were plotted as means of three replicates (Supplementary Figure 1).

[3] = system: MSSA1 (methicillin-susceptible Staphylococcus aureus); type: cell-based
Experimental: (§1) Evaluation of antibacterial spectra of purified peptides. The MIC assay was performed according to the Clinical and Laboratory Standards Institute protocols. The antibacterial activities of the purified peptides A1, B01–B04, B11–B13, B21, and B22 were measured using the broth microdilution method. 6 Serial dilutions of the peptides were prepared in cation adjusted Mueller Hinton Broth. Each dilution (100 µL) was dispensed to each well of the round-bottom plate to obtain final concentrations ranging from 64 µg/mL to 0.00024 µg/mL. Bacteria were grown at 37 °C overnight on Tryptic Soy Broth or Mueller Hinton Broth agar plates.
(§2) The bacterial colonies were suspended in 0.9% saline to obtain OD 625 of 0.08–0.13 using a spectrophotometer UV-1280 (Shimadzu). The resultant suspension was diluted with cation adjusted Mueller Hinton Broth (1/20). The resultant mixture (10 .0 µL) was inoculated to each well of the plates (approximately 5 × 10^4 CFU/well), mixed, and incubated at 37 °C for 18–24 h. The MIC value was determined as the minimum concentration that inhibited growth of bacteria. For Streptococcus species, cation adjusted Mueller Hinton Broth supplemented with 5% laked horse blood was used. […]

[4] = system: Listeria monocytogenes 10403S; details: for Antibacterial activity MIC: 10403S; for antibacterial activity/MIC: L. monocytogenes
Experimental: (§3) Third, 1 was subjected to five pathogenic Gram-positive bacteria.
as §1, §2

[5] = system: Streptococcus pneumoniae NBRC 102642; details: for Antibacterial activity MIC: NBRC 102642; for antibacterial activity/MIC: S. pneumoniae
Experimental: as §3, §1, §2

[6] = system: Enterococcus faecalis JCM5803; details: for antibacterial activity/MIC: E. faecalis; for Antibacterial activity MIC: JCM5803
Experimental: as §3, §1, §2

[7] = system: Streptococcus pyogenes SSI-9; details: for antibacterial activity/MIC: S. pyogenes; for Antibacterial activity MIC: SSI-9
Experimental: as §3, §1, §2

[8] = system: Streptococcus agalactiae JCM5671; details: for Antibacterial activity MIC: JCM5671; for antibacterial activity/MIC: S. agalactiae
Experimental: as §3, §1, §2

[9] = IC50, mammalian cytotoxicity assay
[10] = cytotoxicity against P388 cells/IC50

antibacterial activity/MIC [3] | antibacterial activity/MIC [4] | Antibacterial activity MIC [5] | antibacterial activity/MIC [5] | antibacterial activity/MIC [6] | Antibacterial activity MIC [6] | antibacterial activity/MIC [7] | Antibacterial activity MIC [7] | Compound | IC50 [1, 9] | Supplementary Figure 1 dose-response value ([2]; concentration 0.000512 nM) | Supplementary Figure 1 dose-response value ([2]; concentration 0.00256 nM) | Supplementary Figure 1 dose-response value ([2]; concentration 0.0128 nM) | Supplementary Figure 1 dose-response value ([2]; concentration 0.064 nM) | Supplementary Figure 1 dose-response value ([2]; concentration 0.32 nM) | Supplementary Figure 1 dose-response value ([2]; concentration 1.6 nM) | Supplementary Figure 1 dose-response value ([2]; concentration 8 nM) | Supplementary Figure 1 dose-response value ([2]; concentration 40 nM) | Supplementary Figure 1 dose-response value ([2]; concentration 200 nM) | Supplementary Figure 1 dose-response value ([2]; concentration 1000 nM) | Supplementary Figure 1 dose-response value ([2]; concentration 5000 nM) | further results
16 µg/mL | > 64 µg/mL | 0.53 µM | 1 µg/mL | 8 µg/mL | 4.3 µM | 32 µg/mL | 17 µM | CC(C)C[C@@H](NC(=O)[C@H](C)NC(=O)[C@H](NC(=O)[C@H](C)NC(=O)CNC(=O)[C@@H](NC=O)C(C)C)[C@H](C)O)C(=O)N[C@H](C(=O)N[C@H](CC(C)C)C(=O)N[C@@H](Cc1c[nH]c2ccccc12)C(=O)N[C@@H](C(=O)N[C@@H](Cc1c[nH]c2ccccc12)C(=O)N[C@H](CC(C)C)C(=O)N[C@@H](Cc1c[nH]c2ccccc12)C(=O)N[C@@H](C(=O)N[C@@H](Cc1c[nH]c2ccccc12)C(=O)NCCO)C(C)C)[C@H](C)O)C(C)C [B21] (For-VGA[dT]A[dL]V[dL]W[dT]W[dL]W[dV]W-NHCH2CH2OH) | > 1000 nM | 14.8974 and 5.3396 and 11.8083 | 18.072 and -2.382 and 0.726 | -1.184 and 8.357 and 7.1241 | -0.803 and 4.138 and 1.858 | 1.612 and 3.04 and 7.439 | 5.221 and -3.492 and 12.0075 | 15.0705 and 19.6578 and 20.2333 | 21.4059 and 19.6002 and 32.4332 | 39.5964 and 37.7798 and 25.5852 | 40.751 and 51.3594 and 47.003 | 73.5609 and 68.2985 and 59.7258 | Antibacterial activity MIC [4]: > 34 µM; Antibacterial activity MIC [8]: 34 µM; antibacterial activity/MIC [8]: 64 µg/mL
8 µg/mL | 4 µg/mL | 0.017 µM | 0.031 µg/mL | 2 µg/mL | 1.1 µM | 0.5 µg/mL | 0.27 µM | CC(C)C[C@@H](NC(=O)[C@H](C)NC(=O)CNC(=O)[C@@H](NC=O)C(C)C)C(=O)N[C@@H](C)C(=O)N[C@H](CC(C)C)C(=O)N[C@H](C(=O)N[C@H](CC(C)C)C(=O)N[C@@H](Cc1c[nH]c2ccccc12)C(=O)N[C@H](CC(C)C)C(=O)N[C@@H](Cc1c[nH]c2ccccc12)C(=O)N[C@@H](C(=O)N[C@@H](Cc1c[nH]c2ccccc12)C(=O)N[C@@H](C(=O)N[C@@H](Cc1c[nH]c2ccccc12)C(=O)NCCO)C(C)C)[C@H](C)O)C(C)C [B11] (For-VGA[dL]A[dL]V[dL]W[dL]W[dT]W[dV]W-NHCH2CH2OH) | 289 nM | 5.494 and 6.863 and 12.708 | 14.2851 and 9.552 and 1.714 | 7.111 and 13.4023 and 5.9017 | 7.045 and 5.618 and 12.7128 | 7.504 and 4.742 and -0.9072 | 6.643 and 8.722 and 7.953 | 9.977 and 11.641 and 10.0816 | 10.5587 and 19.8477 and 14.3879 | 16.8668 and 21.6675 and 22.4815 | 29.3702 and 19.1829 and 26.8244 | 51.942 and 51.7671 and 63.4556 | IC50 [1, 10]: 250 ± 57.7 nM; Antibacterial activity MIC [8]: 8.5 µM; antibacterial activity/MIC [8]: 16 µg/mL
32 µg/mL | 4 µg/mL | 0.0083 µM | 0.016 µg/mL | 0.25 µg/mL | 0.13 µM | 0.13 µg/mL | 0.067 µM | CC(C)C[C@@H](NC(=O)[C@H](C)NC(=O)[C@H](NC(=O)[C@H](C)NC(=O)CNC(=O)[C@@H](NC=O)C(C)C)C(C)C)C(=O)N[C@H](C(=O)N[C@@H](C(=O)N[C@@H](Cc1c[nH]c2ccccc12)C(=O)N[C@@H](C(=O)N[C@@H](Cc1c[nH]c2ccccc12)C(=O)N[C@H](CC(C)C)C(=O)N[C@@H](Cc1c[nH]c2ccccc12)C(=O)N[C@H](CC(C)C)C(=O)N[C@@H](Cc1c[nH]c2ccccc12)C(=O)NCCO)C(C)C)C(C)C)C(C)C [B02] (For-VGA[dV]A[dL]V[dV]W[dV]W[dL]W[dL]W-NHCH2CH2OH) | 18.7 nM | 9.02 and 15.736 and 15.2512 | 10.3575 and 0.7916 and 7.576 | 7.7612 and 17.627 and 12.0633 | 6.7018 and 5.872 and 12.3383 | 3.446 and 4.916 and 7.303 | 10.6531 and 8.102 and 5.996 | 14.5931 and 12.2206 and 13.5025 | 11.4708 and 19.6235 and 9.068 | 17.1246 and 21.9524 and 27.5088 | 23.4943 and 22.4951 and 16.9683 | 38.5863 and 36.6933 and 43.5874 | IC50 ([1]; Cytotoxicity IC50): 17 nM; IC50 [1, 10]: 16.8 ± 2.82 nM; Antibacterial activity MIC [4]: 2.1 µM; Antibacterial activity MIC [8]: 8.6 µM; antibacterial activity/MIC [8]: 16 µg/mL
